Each structure is given as a SMILES string.

Consider four molecules from patent publication EP4417602A1, “SUBSTITUTED PYRAZOLE CARBOXAMIDES, SALTS THEREOF AND THEIR USE AS HERBICIDALLY ACTIVE SUBSTANCES” (Bayer AG, priority 2023, dated 2024).

Experiment [1] has as its system ECHCG. Nature of the experiment: A. Herbicidal pre-emergence action on harmful plants (Tables A). In kind it is in vivo, Echinochloa crus-galli. The note with it: visual grading after ca. 3 weeks vs untreated controls, 100% = plants have died off, 0% = as control plants. The method in brief:
(§1)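 Greenhouse pre-emergence test: compound applied to the soil surface at 1280 g/ha or below, and herbicidal effect rated visually at ca. 3 weeks on a 0–100% scale against untreated plants.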

In experiment [2] the test system is AMARE. Nature of the experiment: B. Herbicidal post-emergence action on harmful plants (Tables B). The class given is in vivo, Amaranthus retroflexus. As to conditions: application rate 1280 g/ha; Table B8. On the procedure:
(§2) Seeds of mono- and dicotyledonous weed plants were placed in plastic pots in sandy loam soil (doubly sown with in each case one species of mono- or dicotyledonous weed plants per pot), covered with soil and cultivated in a greenhouse under controlled growth conditions. 2 to 3 weeks after sowing, the test plants were treated at the one-leaf stage. The compounds of the invention, formulated in the form of wettable powders (WP) or as emulsion concentrates (EC), were applied onto the green parts of the plants as aqueous suspension or emulsion with addition of 0.5% additive at a water application rate of 600 liters per hectare (converted). After the test plants had been kept in the greenhouse under optimum growth conditions for about 3 weeks, the activity of the preparations was rated visually in comparison to untreated controls. For example, 100% activity = the plants have died, 0% activity = like control plants. Tables B1 to B12, below, show the effects of selected compounds of the general formula (I) according to table 1 on various harmful plants and an application rate corresponding to 1280 g/ha or below obtained by the experimental procedure mentioned above. Table B1a: post-emergence activity at 1280g/ha against ABUTH in %

For experiment [3], the system named is DIGSA. The description is as above. The note with it: application rate 1280 g/ha; Table B12a. In kind it is in vivo, Digitaria sanguinalis. The method in brief:
(§3)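 Activity was scored visually as % damage (100% = dead, 0% = like untreated) about 3 weeks after treatment. Plants at the one-leaf stage, 2-3 weeks old, were sprayed with WP/EC formulations plus 0.5% additive (600 L/ha water, up to 1280 g/ha). Plants were grown in sandy loam in a greenhouse.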

Experiment [4] relates to SETVI. Nature of the experiment: A. Herbicidal pre-emergence action on harmful plants (Tables A). The class given is in vivo, Setaria viridis. As to conditions: visual grading after ca. 3 weeks vs untreated controls, 100% = plants have died off, 0% = as control plants. The method in brief:
as §1

Experiment [5] concerns MATIN. In words: B. Herbicidal post-emergence action on harmful plants (Tables B). The class given is in vivo, Matricaria inodora. The note with it: application rate 1280 g/ha; Table B4a. The method in brief: as §3
For experiment [6], the system named is POAAN. In words: A. Herbicidal pre-emergence action on harmful plants (Tables A). In kind it is in vivo, Poa annua. The method in brief:
as §1

Experiment [7] deals with AMARE. The description is as above. In kind it is in vivo, Amaranthus retroflexus. The method in brief: as §1
In experiment [8] the test system is KCHSC. In words: B. Herbicidal post-emergence action on harmful plants (Tables B). In kind it is in vivo, Kochia scoparia. On the procedure:
as §2

The test system of experiment [9] is DIGSA. In words: A. Herbicidal pre-emergence action on harmful plants (Tables A). In kind it is in vivo, Digitaria sanguinalis. The method in brief:
as §1

Experiment [10] relates to VERPE. Described as above. In kind it is in vivo, Veronica persica. The note with it: application rate 1280 g/ha; Table A11. An excerpt:
Seeds of mono- and dicotyledonous weed plants were sown in plastic pots (double sowings with one species of mono- and one species of dicotyledonous weed plants per pot), in sandy loam, and covered with soil. The compounds according to the invention, formulated in the form of wettable powders (WP) or as emulsifiable concentrates (EC), were applied to the surface of the covering soil as aqueous suspension or emulsion, with the addition of 0.5% of an additive, at an application rate of 6001 of water per hectare (converted). Following treatment, the pots were placed in a greenhouse and kept under optimum growth conditions for the test plants. The visual grading of the damage to the test plants was carried out after ca. 3 weeks in comparison to untreated controls (herbicidal effect in percent (%): 100% effect = plants have died off, 0% effect = as control plants). Tables A1 to A12, below, show the effects of selected compounds of the general formula (I) according to table 1 on various harmful plants and an application rate corresponding to 1280 g/ha or below obtained by the experimental procedure mentioned above. Table A1: pre-emergence activity at 1280g/ha against ABUTH in %

The subject of experiment [11] is POAAN. Nature of the experiment: B. Herbicidal post-emergence action on harmful plants (Tables B). In kind it is in vivo, Poa annua. The method in brief:
as §3

Experiment [12] has as its system ALOMY. Nature of the experiment: A. Herbicidal pre-emergence action on harmful plants (Tables A). In kind it is in vivo, Alopecurus myosuroides. The method in brief: as §1
For experiment [13], the system named is STEME. Described as above. In kind it is in vivo, Stellaria media. The note with it: visual grading after ca. 3 weeks vs untreated controls, 100% = plants have died off, 0% = as control plants. The method in brief:
as §1

The subject of experiment [14] is MATIN. The experiment is described as above. The note with it: visual grading after ca. 3 weeks vs untreated controls, 100% = plants have died off, 0% = as control plants. The class given is in vivo, Matricaria inodora. The method in brief: as §1
In experiment [15] the test system is LOLRI. Described as above. As to conditions: visual grading after ca. 3 weeks vs untreated controls, 100% = plants have died off, 0% = as control plants. In kind it is in vivo, Lolium rigidum. The method in brief:
as §1

The subject of experiment [16] is LOLRI. In words: B. Herbicidal post-emergence action on harmful plants (Tables B). In kind it is in vivo, Lolium rigidum. As to conditions: application rate 1280 g/ha; Table B3. Here is the method:
as §2

Experiment [17] concerns STEME. The experiment is described as above. In kind it is in vivo, Stellaria media. As to conditions: application rate 1280 g/ha; Table B6. The method in brief:
as §3

Experiment [18] has as its system SETVI. The experiment is described as above. The note with it: application rate 1280 g/ha; Table B5. The class given is in vivo, Setaria viridis. The method in brief: as §3
Experiment [19] deals with ABUTH. Described as above. The class given is in vivo, Abutilon theophrasti. The note with it: application rate 1280 g/ha; Table B1a. The method in brief: as §3
For experiment [20], the system named is ECHCG. The experiment is described as above. The class given is in vivo, Echinochloa crus-galli. The method in brief:
as §3

For experiment [21], the system named is VERPE. The experiment is described as above. The class given is in vivo, Veronica persica. The method in brief: as §3
[22] abbreviates: application rate 1280 g/ha, visual grading after ca. 3 weeks vs untreated controls, 100% = plants have died off, 0% = as control plants.
The mark [23] stands for this setting: application rate 1280 g/ha, Table B10a.
The mark [24] stands for this setting: application rate 1280 g/ha, Table A12a.
[25] abbreviates: application rate 1280 g/ha, Table B7a.
Where [26] appears, read: application rate 1280 g/ha, Table A9a.
[27] abbreviates: application rate 80 g/ha, Table A7c.
The mark [28] stands for this setting: application rate 320 g/ha, Table A7b.
The mark [29] stands for this setting: application rate 320 g/ha, Table A12b.

As to `CC(C)COCc1nn(C)cc1C(=O)N1CCCC1Cc1cc(F)ccc1F` (racemic) [Example I-009], the “pre-emergence activity against ECHCG” value in experiment [1] (application rate 1280 g/ha) is recorded as 100%. For the same molecule, the “post-emergence activity against AMARE” value in [2] turned out to be 90%. Also, in [3], the “post-emergence activity against DIGSA” value is given as 100%. For the same molecule, the “pre-emergence activity against SETVI” value in [4] (application rate 1280 g/ha) is given as 100%. Further, the “post-emergence activity against MATIN” value in experiment [5] turned out to be 90%. For the same molecule, the “pre-emergence activity against POAAN” value in experiment [6] (setting [22]) came to 100%. Also, the “pre-emergence activity against AMARE” value in experiment [7] (setting [22]) was 100%. Moreover, the “post-emergence activity against KCHSC” value in experiment [8] (application rate 320 g/ha, Table B10b) came out at 100%; in experiment [8] (setting [23]), 100%. For the same molecule, the “pre-emergence activity against DIGSA” value in experiment [9] (setting [24]) was 90%.

As to `Cn1ncc(C(=O)N2CCCC2Cc2ccccc2F)c1COCC(F)(F)F` (racemic) [Example I-163], the “pre-emergence activity against ECHCG” value in experiment [1] (application rate 1280 g/ha) is reported as 90%. Moreover, in [10], the “pre-emergence activity against VERPE” value came to 100%. Also, the “post-emergence activity against POAAN” value in experiment [11] (setting [25]) was 100%. In experiment [6] (setting [22]), the “pre-emergence activity against POAAN” value worked out at 100%. In experiment [8] (setting [23]), the “post-emergence activity against KCHSC” value is reported as 90%. Moreover, the “pre-emergence activity against ALOMY” value in [12] (setting [26]) was 100%. Also, the “pre-emergence activity against DIGSA” value in experiment [9] (setting [24]) is listed as 90%. Further, the “pre-emergence activity against STEME” value in experiment [13] (application rate 1280 g/ha) was found to be 90%.

As to `COCc1c(C(=O)N2CCCC2Cc2ccccc2F)cnn1C` (racemic) [Example I-171], the “pre-emergence activity against ECHCG” value in experiment [1] (application rate 320 g/ha) turned out to be 90%; in [1] (application rate 1280 g/ha), 100%. For the same molecule, the figures for the “pre-emergence activity against SETVI” value in experiment [4] (application rate 320 g/ha) and in [4] (application rate 1280 g/ha) were 90% and 100%, respectively. Also, the “pre-emergence activity against POAAN” value was 90% in experiment [6] (setting [27]), 100% in [6] (setting [28]) and 100% in experiment [6] (setting [22]). Besides, the “pre-emergence activity against MATIN” value in [14] (application rate 1280 g/ha) came to 100%. In [8] (setting [23]), the “post-emergence activity against KCHSC” value is 90%. In addition, the entries for the “pre-emergence activity against DIGSA” value in experiment [9] (setting [29]) and in experiment [9] (setting [24]) were 90% and 100%, respectively. Also, in experiment [13] (application rate 1280 g/ha), the “pre-emergence activity against STEME” value is listed as 90%. For the same molecule, the “pre-emergence activity against LOLRI” value in [15] (application rate 320 g/ha) is 90%; in experiment [15] (application rate 1280 g/ha) it was 100%.

For `COCc1nn(C)cc1C(=O)N1CCCC1Cc1ccc(F)cc1F` (single isomer, unassigned) [Example I-079], the “pre-emergence activity against ECHCG” value in experiment [1] (application rate 80 g/ha), in [1] (application rate 320 g/ha) and in experiment [1] (application rate 1280 g/ha) was 90% throughout. The “post-emergence activity against AMARE” value in experiment [2] is recorded as 90%. In experiment [10], the “pre-emergence activity against VERPE” value came to 90%. The “post-emergence activity against DIGSA” value in experiment [3] was determined as 90%. For the same molecule, the “pre-emergence activity against SETVI” value in experiment [4] (application rate 80 g/ha), in experiment [4] (application rate 320 g/ha) and in experiment [4] (application rate 1280 g/ha) was 90% throughout. For the same molecule, the “post-emergence activity against POAAN” value in [11] (application rate 80 g/ha, Table B7c) worked out at 90%; in experiment [11] (application rate 320 g/ha, Table B7b), 90%; in [11] (setting [25]) it was 90%. Also, the “post-emergence activity against MATIN” value in [5] was determined as 90%. The “post-emergence activity against LOLRI” value in [16] stood at 90%. In addition, the “post-emergence activity against STEME” value in [17] is recorded as 90%. Further, the “pre-emergence activity against POAAN” value in [6] (setting [27]), in experiment [6] (setting [28]) and in experiment [6] (setting [22]) was 100% throughout. In experiment [18], the “post-emergence activity against SETVI” value was 90%. For the same molecule, the “post-emergence activity against ABUTH” value in [19] was 90%. The “post-emergence activity against ECHCG” value in [20] (application rate 320 g/ha, Table B2b) is 90%; in experiment [20] (application rate 1280 g/ha, Table B2a), 90%. In addition, the “pre-emergence activity against AMARE” value in experiment [7] (application rate 320 g/ha, Table A8b) was found to be 90%; in experiment [7] (setting [22]) it was 90%. Besides, the “pre-emergence activity against MATIN” value in experiment [14] (application rate 80 g/ha), in experiment [14] (application rate 320 g/ha) and in experiment [14] (application rate 1280 g/ha) was 90% each time. Besides, the “pre-emergence activity against ALOMY” value in experiment [12] (application rate 320 g/ha, Table A9b) was found to be 90%; in experiment [12] (setting [26]), 90%. The “pre-emergence activity against DIGSA” value in experiment [9] (application rate 80 g/ha, Table A12c) is 90%; in [9] (setting [29]), 90%; in experiment [9] (setting [24]), 90%. Further, the “pre-emergence activity against STEME” value in experiment [13] (application rate 80 g/ha), in [13] (application rate 320 g/ha) and in experiment [13] (application rate 1280 g/ha) was 90% each time. Further, the “pre-emergence activity against LOLRI” value in [15] (application rate 80 g/ha) is 90%; in experiment [15] (application rate 320 g/ha), 100%; in [15] (application rate 1280 g/ha), 100%. Also, the “post-emergence activity against VERPE” value in experiment [21] (application rate 320 g/ha, Table B11b) is recorded as 90%; in [21] (application rate 1280 g/ha, Table B11a), 90%.
